The record followed here is ChEMBL document CHEMBL1140856, “Substituted 1,2,3,4-tetrahydroquinolin-6-yloxypropanes as beta3-adrenergic receptor agonists: design, synthesis, biological evaluation and pharmacophore modeling” (Bioorg Med Chem, 2009).

In assay [1] the target is T1, Beta-3 adrenergic receptor (Homo sapiens, UniProt P13945). The experiment in a line: Displacement of [125I]iodocyanopindolol from human adrenergic beta-3 receptor at 10 uM.
Target sequence in this assay (P13945 whole entry, looked up): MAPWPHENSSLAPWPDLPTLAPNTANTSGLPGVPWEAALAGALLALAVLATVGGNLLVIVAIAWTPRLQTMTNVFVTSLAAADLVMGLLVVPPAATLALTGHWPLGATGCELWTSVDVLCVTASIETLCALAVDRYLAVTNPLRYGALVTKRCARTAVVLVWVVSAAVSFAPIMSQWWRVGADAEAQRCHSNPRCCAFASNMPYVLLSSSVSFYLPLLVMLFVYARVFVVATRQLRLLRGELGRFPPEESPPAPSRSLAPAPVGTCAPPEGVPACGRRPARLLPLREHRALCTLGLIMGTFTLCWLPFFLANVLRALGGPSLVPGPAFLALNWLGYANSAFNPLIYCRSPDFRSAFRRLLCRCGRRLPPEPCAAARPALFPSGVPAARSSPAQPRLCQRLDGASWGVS
Assay [2] deals with T1, Beta-3 adrenergic receptor. Nature of the assay: Displacement of [125I]iodocyanopindolol from human adrenergic beta-3 receptor at 1 uM. (Loss of bound radioactivity is the signal in a displacement assay; it reports binding, not function.)
Target sequence in this assay (P13945 whole entry, looked up): as above
Assay [3] deals with T1, Beta-3 adrenergic receptor. The experiment in a line: Displacement of [125I]iodocyanopindolol from human adrenergic beta-3 receptor.
Target sequence in this assay (P13945 whole entry): as the sequence (P13945 whole entry, looked up) above
Assay [4] is described as follows: Selectivity ratio of EC50 for adrenergic beta-2 receptor to EC50 for human adrenergic beta3 receptor.
Assay [5] deals with Beta-2 adrenergic receptor (Homo sapiens, UniProt P07550). Nature of the assay: Agonist activity at adrenergic beta-2 receptor. Type of assay: functional.
Assay [6] addresses T1, Beta-3 adrenergic receptor. The experiment in a line: Agonist activity at adrenergic beta-3 receptor in human SK-N-MC cells. Type of assay: functional, cell-based.
Target sequence in this assay (P13945 whole entry): as the sequence (P13945 whole entry, looked up) above
Assay [7] can be described thus: Selectivity ratio of EC50 for adrenergic beta-1 receptor to EC50 for human adrenergic beta-3 receptor.
Assay [8] deals with Beta-1 adrenergic receptor (Homo sapiens, UniProt P08588). The experiment in a line: Agonist activity at adrenergic beta-1 receptor. Type of assay: functional.

Molecules are shown by their SMILES.

Sequence of Beta-1 adrenergic receptor (P08588 whole entry): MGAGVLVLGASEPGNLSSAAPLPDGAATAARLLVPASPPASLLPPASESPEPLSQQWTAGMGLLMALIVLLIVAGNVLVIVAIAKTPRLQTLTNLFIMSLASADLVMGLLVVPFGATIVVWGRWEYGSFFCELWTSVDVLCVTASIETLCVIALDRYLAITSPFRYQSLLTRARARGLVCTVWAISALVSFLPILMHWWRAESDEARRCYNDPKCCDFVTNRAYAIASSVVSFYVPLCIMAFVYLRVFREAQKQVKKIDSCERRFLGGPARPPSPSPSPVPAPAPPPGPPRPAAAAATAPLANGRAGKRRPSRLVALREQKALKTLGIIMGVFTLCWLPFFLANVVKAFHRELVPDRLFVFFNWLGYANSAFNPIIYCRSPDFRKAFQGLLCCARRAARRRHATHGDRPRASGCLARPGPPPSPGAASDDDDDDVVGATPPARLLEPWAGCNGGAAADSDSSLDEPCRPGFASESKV
Sequence of Beta-2 adrenergic receptor (P07550 whole entry): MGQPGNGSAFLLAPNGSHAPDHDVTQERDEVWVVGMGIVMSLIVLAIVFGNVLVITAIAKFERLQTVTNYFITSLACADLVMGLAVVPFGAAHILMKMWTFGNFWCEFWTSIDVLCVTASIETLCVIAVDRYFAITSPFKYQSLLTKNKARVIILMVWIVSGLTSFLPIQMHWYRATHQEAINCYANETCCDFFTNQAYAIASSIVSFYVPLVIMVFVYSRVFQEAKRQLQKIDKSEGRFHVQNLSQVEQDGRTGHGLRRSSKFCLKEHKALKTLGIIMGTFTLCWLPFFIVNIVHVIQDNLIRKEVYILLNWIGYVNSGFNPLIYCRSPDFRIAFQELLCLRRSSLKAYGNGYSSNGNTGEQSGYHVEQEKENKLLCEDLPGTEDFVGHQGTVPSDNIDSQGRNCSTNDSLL

Regarding `Cc1ccc(N2CCN(CC(O)COc3ccc4c(c3)CCCN4Cc3ccccc3)C(C)C2)cc1` (stereo not drawn), the figures for the inhibition in assay [1] and in assay [2] were 11.8% and 3.19%, respectively.

As for `OC(COc1ccc2c(c1)CCCN2Cc1ccccc1)CN1CCN(c2ccccc2F)CC1` (stereo not drawn), the results for the inhibition in assay [1] and in assay [2] were 20.4% and 5.5%, respectively.

Consider `CC(Cc1ccc(O)cc1)N1CCOC(c2ccccc2)C1` (stereo not drawn), for which the inhibition (commonly the drop in the measured response relative to a control, in per cent) in assay [1] turned out to be 0.24%; in assay [2] it was 0.34%.

Regarding `OC(COc1ccc2c(c1)CCCN2Cc1ccccc1)CN1CCN(c2ccc(Cl)c(Cl)c2)CC1` (stereo not drawn), the inhibition in assay [1] was 0.28%; in assay [2] it was -7.18%.

As to `CC(NCC(O)COc1ccc2c(c1)CCCN2Cc1ccccc1)c1ccccc1` (stereo not drawn), the inhibition in assay [1] is 27.5%; in assay [2], 7.71%.

For the compound `COc1ccc(CCNCC(O)COc2ccc3c(c2)CCCN3Cc2ccccc2)cc1` (stereo not drawn), the concentration for half-maximal inhibition (IC50) (commonly the point on the concentration scale where inhibition reaches its midpoint) in assay [3] was 1.18 µM. Further, the inhibition was determined as 76.5% in assay [1] and 56.2% in assay [2]. For the same compound, the Ratio EC50 in assay [4] was determined as 1.2; in assay [7], 1.47. Further, the results for the 50% effective concentration (EC50) in assay [5], in assay [6] and in assay [8] were 5.9 µM, 4.88 µM and 7.28 µM, respectively.

In the case of `O=[N+]([O-])c1ccc(N2CCN(CC(O)COc3ccc4c(c3)CCCN4Cc3ccccc3)CC2)cc1` (stereo not drawn), the inhibition in assay [1] is 4.13%; in assay [2], 6.08%.

Take `Clc1ccc(CCNCCCOc2ccc3c(c2)CCCN3Cc2ccccc2)cc1`: the inhibition amounted to 58.7% in assay [1] and 42.9% in assay [2].

Take `CCCNCC(O)COc1ccc2c(c1)CCCN2Cc1ccccc1` (stereo not drawn): the inhibition is 66.3% in assay [1] and 19.2% in assay [2].

Take `COc1ccc(CCNCC(O)COc2ccc3c(c2)CCCN3)cc1OC` (stereo not drawn): the figures for the inhibition in assay [1] and in assay [2] were 56.5% and 33.1%, respectively.

`OC(COc1ccc2c(c1)CCCN2Cc1ccccc1)CN1CCN(c2ccccn2)CC1` (stereo not drawn): the results for the inhibition in assay [1] and in assay [2] were 12.7% and 5.32%, respectively.

Turning to `COc1ccc(CCN(CC(O)COc2ccc3c(c2)CCCN3)C(=O)OC(C)(C)C)cc1OC` (stereo not drawn), the inhibition amounted to 28.1% in assay [1] and 23.2% in assay [2].

For `CCOC(=O)COc1ccc(CC(C)N2CCOC(c3ccccc3)C2)cc1` (stereo not drawn), the inhibition in assay [1] was -1.36%.

Consider `COc1ccc(CCNCC(O)COc2ccc3c(c2)CCCN3Cc2ccccc2)cc1OC` (stereo not drawn), for which the half-maximal inhibitory concentration (IC50) in assay [3] came to 0.55 µM. Besides, the inhibition in assay [1] was 90.6%; in assay [2], 72.8%.

Take `CC(Cc1ccc(OCC(=O)O)cc1)N1CCOC(c2ccccc2)C1` (stereo not drawn): the values for the inhibition in assay [1] and in assay [2] were 9.42% and -9.63%, respectively.

Take `OC(COc1ccc2c(c1)CCCN2Cc1ccccc1)CN1CCCCC1` (stereo not drawn): the inhibition was determined as 31.4% in assay [1] and 4.27% in assay [2].

As for `CCN(CC)CC(O)COc1ccc2c(c1)CCCN2Cc1ccccc1` (stereo not drawn), the inhibition in assay [1] came to 11.2%; in assay [2], 9.18%.

With `OC(COc1ccc2c(c1)CCCN2Cc1ccccc1)CN1CCN(c2cccc(Cl)c2)CC1` (stereo not drawn), the values for the inhibition in assay [1] and in assay [2] were 11.3% and -2.34%, respectively.

Consider `COc1ccc(CCNCC(O)COc2ccc3c(c2)CCCN3S(=O)(=O)c2ccccc2)cc1OC` (stereo not drawn), for which the inhibition in assay [1] amounted to 38.9%; in assay [2], 26.5%.

Turning to `Cc1ccc(CCNCC(O)COc2ccc3c(c2)CCCN3Cc2ccccc2)cc1` (stereo not drawn), the values for the inhibition in assay [1] and in assay [2] were 18.1% and 8.17%, respectively.

On to `CC(C)NCC(O)COc1ccc2c(c1)CCCN2Cc1ccccc1` (stereo not drawn), for which the IC50 in assay [3] turned out to be 0.59 µM. In addition, the results for the inhibition in assay [1] and in assay [2] were 83.2% and 59.7%, respectively. The Ratio EC50 in assay [4] turned out to be 1.31; in assay [7], 2.3. The EC50 – broadly, the concentration giving half of the maximal effect – in assay [5] came out at 1.16 µM; in assay [6], 0.883 µM; in assay [8], 2.03 µM.

As to `COc1ccc(CNCC(O)COc2ccc3c(c2)CCCN3Cc2ccccc2)cc1` (stereo not drawn), the inhibition in assay [1] stood at 27.4%; in assay [2], 9.26%.

`OC(COc1ccc2c(c1)CCCN2Cc1ccccc1)CN1CCN(Cc2ccccc2)CC1` (stereo not drawn): the inhibition is 17.1% in assay [1] and -0.84% in assay [2].

On to `COc1ccc(N2CCN(CC(O)COc3ccc4c(c3)CCCN4Cc3ccccc3)CC2)cc1` (stereo not drawn), for which the inhibition in assay [1] is 49.8%; in assay [2], 45.1%.

Take `CC1CCN(CC(O)COc2ccc3c(c2)CCCN3Cc2ccccc2)CC1` (stereo not drawn): the figures for the inhibition in assay [1] and in assay [2] were 12.8% and -1.79%, respectively.

Consider `CN(Cc1ccccc1)CC(O)COc1ccc2c(c1)CCCN2Cc1ccccc1` (stereo not drawn), for which the inhibition in assay [1] was 2.54%; in assay [2], -4.54%.

Consider `OC(COc1ccc2c(c1)CCCN2Cc1ccccc1)CN1CCC(Cc2ccccc2)CC1` (stereo not drawn), for which the inhibition was 23.5% in assay [1] and -2.05% in assay [2].

On to `COc1ccc(CCN(CC(O)COc2ccc3c(c2)CCCN3Cc2ccccc2)C(=O)OC(C)(C)C)cc1OC` (stereo not drawn), for which the inhibition in assay [1] was found to be 46.7%; in assay [2] it was 37.8%.

Turning to `CC1CN(c2ccc(Cl)cc2)CCN1CC(O)COc1ccc2c(c1)CCCN2Cc1ccccc1` (stereo not drawn), the figures for the inhibition in assay [1] and in assay [2] were 0.08% and 3.61%, respectively.

Turning to `CCCCN(CCCC)CC(O)COc1ccc2c(c1)CCCN2Cc1ccccc1` (stereo not drawn), the inhibition came out at 14.7% in assay [1] and 4.09% in assay [2].

As to `OC(COc1ccc2c(c1)CCCN2Cc1ccccc1)CN1CCN(c2ccccc2)CC1` (stereo not drawn), the inhibition in assay [1] stood at 52.2%; in assay [2] it was 45.9%.

`OC(COc1ccc2c(c1)CCCN2Cc1ccccc1)CN1CCN(c2ccc(F)cc2)CC1` (stereo not drawn) yielded an IC50 in assay [3] of 1.76 µM. For the same compound, the inhibition in assay [1] was 68.8%; in assay [2], 49.7%.

For `CN1CCN(CC(O)COc2ccc3c(c2)CCCN3Cc2ccccc2)CC1` (stereo not drawn), the values for the inhibition in assay [1] and in assay [2] were 0.18% and -3.71%, respectively.

Take `OC(COc1ccc2c(c1)CCCN2Cc1ccccc1)CN1CCN(Cc2ccc3c(c2)OCO3)CC1` (stereo not drawn): the values for the inhibition in assay [1] and in assay [2] were 18.1% and -5.28%, respectively.

With `CCCNCCCOc1ccc2c(c1)CCCN2Cc1ccccc1`, the results for the inhibition in assay [1] and in assay [2] were 16.2% and 5.62%, respectively.

For `OC(CNCCc1ccc(Cl)cc1)COc1ccc2c(c1)CCCN2Cc1ccccc1` (stereo not drawn), the inhibition in assay [1] came out at 63.1%; in assay [2], 55.8%.

For the compound `COc1ccc(N2CCN(CCCOc3ccc4c(c3)CCCN4Cc3ccccc3)CC2)cc1`, the inhibition in assay [1] is 1.95%; in assay [2] it was 6.72%.

Turning to `OC(COc1ccc2c(c1)CCCN2Cc1ccccc1)CN1CCC(O)(c2ccccc2)CC1` (stereo not drawn), the inhibition in assay [1] is 50.5%; in assay [2], 46.4%.

As for `COc1ccccc1N1CCN(CC(O)COc2ccc3c(c2)CCCN3Cc2ccccc2)CC1` (stereo not drawn), the inhibition in assay [1] amounted to 14.5%; in assay [2], 12.2%.

With `OC(CNCc1ccccc1)COc1ccc2c(c1)CCCN2Cc1ccccc1` (stereo not drawn), the inhibition in assay [1] stood at 19%; in assay [2], 1.81%.
